Measurements as given in patent publication US7175872B2, “Pyridinium-Betain compounds for use as taste modulators” (Nestec S.A., priority 2002, dated 2007).
Where a name gives a salt, the structure may show the parent alone.

What was measured:
[1] = test system: bitter taste of L-phenylalanine; assay: Bitter intensity ranking with Glypyridaine: L-Phenylalanine; assay type: in vivo
Text: (§1) Instead of working with low concentrated solutions at the bitter threshold, another series of experiments use carried out using more concentrated solutions of various bitter compounds to evaluate the bitter-blocking properties of Pyridinium-Betaines based on non-chiral amino acids. […] The bitter-reducing effect was most pronounced with L-Phenylalanine, the dipeptide H-Gly-Leu-OH, and caffeine.

[2] = test system: bitter taste of L-phenylalanine; assay: Bitter-blocking effect on L-phenylalanine (detection threshold, 1/1 mixtures); assay type: in vivo; details: for Taste quality: conc. 32 mmol/L, mixtures 1/1 with L-Phe; for own taste: Pyridinium-Betaine alone
Description: • Sensory panel training: […] Sensory analyses were performed in a sensory panel room at 22-25° C. on three different sessions. • Taste thresholds: The taste thresholds of the tastants or mixtures containing basic tastants plus Pyridinium-Betains were determined in a triangle test using Evian® mineral water as the solvent at a defined pH ([…] and H.-D. Belitz, Z. Lebensm. Unters. Forsch. 1975, 159, 65-72). The samples (3 mL) were presented in order of increasing concentrations (serial 1:1 dilutions). The threshold values evaluated in two different sessions were averaged. […] The taste intensities of aqueous (Evian®) solutions containing a basic tastant, such as glucose and MSG, for example, in constant concentrations and the compounds of the general formula (A), for example […], in various concentrations were compared with those of a solution containing the basic tastant only. To achieve this, triangle tests were performed with two glass vials containing the basic tastant in constant concentrations, and one glass vial containing a stepwise 1:1-diluted mixture of basic […]. […] The relative taste strength (taste enhancing factor) of a mixture containing the basic […] was related to the basic tastants glucose, MSG, or other tastants, respectively, as standard substances, and was determined as the ratio of the concentrations c of iso-intensely tasting solutions of the basic tastant, such as glucose (glc), and the mixture containing tastant plus Pyridinium-Betain, […])=[…] […] This taste enhancing effect is illustrated in examples. The tasteless Pyridinium-Betaines […] and Gabapyridaine, built from non-[…] amino acids, were tested for their bitter-blocking activity on L-phenylalanine.

[3] = test system: bitter taste of H-Gly-Leu-OH; assay: Bitter intensity ranking with Glypyridaine: H-Gly-Leu-OH; assay type: in vivo; details: scale 0-5
Text: as §1, with “caffeine. For example the 10:1 mixture of L-Phenylalanine and […] was weaker in bitterness (score 3) as compared to pure L-Phenylalanine (score 5).” for “caffeine.”

[4] = test system: bitter taste of naringine; assay: Bitter intensity ranking with Glypyridaine: naringine; assay type: in vivo; details: scale 0-5
Text: as §1

bitter taste of salicine = assay: Bitter intensity ranking with Glypyridaine: salicine; assay type: in vivo; details: scale 0-5
Text: as §1

[5] = test system: bitter taste of coffee brew; assay: Bitterness reduction of coffee with Glypyridaine; assay type: in vivo; details: coffee brew 40 g/L plus 2.0 mmol/L Glypyridaine; coffee alone 5; scale 0 (no bitterness) to 5 (very bitter)
salty taste of NaCl [6] = assay: Salt taste detection threshold of NaCl/Pyridinium-Betaine mixtures (triangle test, sensory panel); assay type: in vivo
Description: • Sensory panel training: […] Sensory analyses were performed in a sensory panel room at 22-25° C. on three different sessions. • Taste thresholds: The taste thresholds of the tastants or mixtures containing basic tastants plus Pyridinium-Betains were determined in a triangle test using Evian® mineral water as the solvent at a defined pH ([…] and H.-D. Belitz, Z. Lebensm. Unters. Forsch. 1975, 159, 65-72). The samples (3 mL) were presented in order of increasing concentrations (serial 1:1 dilutions). The threshold values evaluated in two different sessions were averaged. […] The taste intensities of aqueous (Evian®) solutions containing a basic tastant, such as glucose and MSG, for example, in constant concentrations and the compounds of the general formula (A), for example […], in various concentrations were compared with those of a solution containing the basic tastant only. […] The relative taste strength (taste enhancing factor) of a mixture containing the basic […] was related to the basic tastants glucose, MSG, or other tastants, respectively, as standard substances, and was determined as the ratio of the concentrations c of iso-intensely tasting solutions of the basic tastant, such as glucose (glc), and the mixture containing tastant plus Pyridinium-Betain, […])=[…] […] This taste enhancing effect is illustrated in examples.

bitter taste of caffeine = assay: Bitter intensity ranking with Glypyridaine: caffeine; assay type: in vivo; details: scale 0-5
Text: as §1

salty taste of NaCl [7] = assay: Salt-intensity ranking of NaCl/Pyridinium-Betaine mixtures by sensory panel; assay type: in vivo; details: 20 mmol/L each, pH 7.0; for Salt-intensity: scale 0 (not salty) to 5 (very salty), reference NaCl-solution ranked as 1
Text: The salt-intensities of various NaCl/Pyridinium-Betaine mixtures (20 mmol/L each) were compared to a 20 mmol/L NaCl standard solution. The sensory panel was asked to rank the salt-intensities of these solutions on a scale from 0 (not salty) to 5 (very salty), while the reference NaCl-solution was ranked as 1. As listed in Table 6, the most intense salty taste was found in the solution containing NaCl and Alapyridaine, as well as in the triple mixture with L-arginine. A slight impact was found for Argpyridaine and L-arginine.

bitter taste = details: in vivo; cited from earlier work

`N[C@@H](Cc1ccccc1)C(=O)O` [L-Phenylalanine, reference compound] gave a Bitter taste intensity ([1]; L-Phenylalanine 20 mmol/L water, no Glypyridaine, scale 0 no bitterness to 5 strongly bitter) of 2, a Bitter taste intensity ([1]; L-Phenylalanine 40 mmol/L water, no Glypyridaine, scale 0-5) of 4 and a Bitter taste intensity ([1]; L-Phenylalanine 80 mmol/L water, no Glypyridaine, scale 0-5) of 5. The Taste quality ([2]; pH 7.0) was “bitter” and the Detection threshold ([2]; pH 7.0) was 16.0 mmol/L water.

Compound `O=C([O-])C[n+]1cc(O)ccc1CO` [Glypyridaine, N-carboxymethyl-3-hydroxy-6-hydroxymethyl-pyridinium inner salt] has a Bitter taste intensity ([1]; L-Phenylalanine 20 mmol/L water, ratio to Glypyridaine 1:1, scale 0-5) of 0, a Bitter taste intensity ([1]; L-Phenylalanine 20 mmol/L water, ratio to Glypyridaine 10:1, scale 0-5) of 0.5 and a Bitter taste intensity ([1]; L-Phenylalanine 40 mmol/L water, ratio to Glypyridaine 1:1, scale 0-5) of 0. For the same compound, the Bitter taste intensity ([1]; L-Phenylalanine 40 mmol/L water, ratio to Glypyridaine 10:1, scale 0-5) was 2, the Bitter taste intensity ([1]; L-Phenylalanine 80 mmol/L water, ratio to Glypyridaine 1:1, scale 0-5) was 0.5 and the Bitter taste intensity ([1]; L-Phenylalanine 80 mmol/L water, ratio to Glypyridaine 10:1, scale 0-5) was 3. The Bitter taste intensity ([3]; H-Gly-Leu-OH 30 mmol/L water, ratio to Glypyridaine 2:1) was 0.5, the Bitter taste intensity ([3]; H-Gly-Leu-OH 30 mmol/L water, ratio to Glypyridaine 10:1) was 2 and the Bitter taste intensity ([3]; H-Gly-Leu-OH 60 mmol/L water, ratio to Glypyridaine 2:1) was 1. For the same compound, the Bitter taste intensity ([3]; H-Gly-Leu-OH 60 mmol/L water, ratio to Glypyridaine 10:1) was 3, the Bitter taste intensity ([3]; H-Gly-Leu-OH 120 mmol/L water, ratio to Glypyridaine 10:1) was 4 and the Bitter taste intensity ([4]; Naringine 0.06 mmol/L water, ratio to Glypyridaine 1:1) was 1. The Bitter taste intensity ([4]; Naringine 0.13 mmol/L water, ratio to Glypyridaine 1:1) was 2, the Bitter taste intensity ([4]; Naringine 0.25 mmol/L water, ratio to Glypyridaine 1:1) was 3 and the own taste [2] was “tasteless”. The Taste quality ([2]; pH 7.0) was “complete loss of the bitter taste”, the Bitter taste intensity (bitter taste of salicine; Salicine 0.8 mmol/L water, ratio to Glypyridaine 1:1) was 1 and the Bitter taste intensity (bitter taste of salicine; Salicine 1.6 mmol/L water, ratio to Glypyridaine 1:1) was 2. For the same compound, the Bitter taste intensity (bitter taste of salicine; Salicine 3.2 mmol/L water, ratio to Glypyridaine 1:1) was 3, the “bitter taste intensity of coffee” value [5] was 2 and the Salt detection threshold (salty taste of NaCl [6]; mixture with NaCl, pH 7.0) was 2.0 mmol/kg water. For the same compound, the Taste quality (salty taste of NaCl [6]; mixture with NaCl, pH 7.0) was “salty”, the Threshold decrease (salty taste of NaCl [6]; mixture with NaCl, pH 7.0, vs NaCl in water 10.0 mmol/L) was 5.0 and the Bitter taste intensity (bitter taste of caffeine; Caffeine 4 mmol/L water, ratio to Glypyridaine 1:1) was 0.5. The Bitter taste intensity (bitter taste of caffeine; Caffeine 4 mmol/L water, ratio to Glypyridaine 5:1) was 1.5, the Bitter taste intensity (bitter taste of caffeine; Caffeine 8 mmol/L water, ratio to Glypyridaine 1:1) was 1.5 and the Bitter taste intensity (bitter taste of caffeine; Caffeine 8 mmol/L water, ratio to Glypyridaine 5:1) was 2. The Bitter taste intensity (bitter taste of caffeine; Caffeine 16 mmol/L water, ratio to Glypyridaine 1:1) was 2 and the Bitter taste intensity (bitter taste of caffeine; Caffeine 16 mmol/L water, ratio to Glypyridaine 5:1) was 3.

For `[Cl-].[Na+]` [NaCl, sodium chloride, reference compound], the Taste quality (salty taste of NaCl [7]) was “salty”, the Salt-intensity (salty taste of NaCl [7]) was 1.0 and the “threshold of salt (NaCl) in water” value (salty taste of NaCl [6]; NaCl alone) was “^aThe threshold of salt (NaCl) in water is 10.0 mmol/L”. For the same compound, the Taste quality (salty taste of NaCl [6]; salt and mixtures with Alapyridaine enantiomers (Table 11), pH not stated) was “salty” and the Detection threshold (salty taste of NaCl [6]; salty, salt and mixtures with Alapyridaine enantiomers (Table 11), pH not stated) was 10.0 mmol/kg water.

`OCc1ccccc1O[C@@H]1O[C@H](CO)[C@@H](O)[C@H](O)[C@H]1O` [Salicine, reference compound] showed a Bitter taste intensity (bitter taste of salicine; Salicine 0.8 mmol/L water, no Glypyridaine) of 3, a Bitter taste intensity (bitter taste of salicine; Salicine 1.6 mmol/L water, no Glypyridaine) of 4.5 and a Bitter taste intensity (bitter taste of salicine; Salicine 3.2 mmol/L water, no Glypyridaine) of 5.

For `O=C([O-])CCC[n+]1cc(O)ccc1CO` [Gabapyridaine], the own taste [2] was “tasteless” and the Taste quality ([2]; pH 7.0) was “complete loss of the bitter taste”.

With `O=C([O-])CC[n+]1cc(O)ccc1CO` [β-Alapyridaine] the own taste [2] was “tasteless” and the Taste quality ([2]; pH 7.0) was “complete loss of the bitter taste”.

With H-Gly-Leu-OH [reference compound] the Bitter taste intensity ([3]; H-Gly-Leu-OH 30 mmol/L water, no Glypyridaine) was 2.5, the Bitter taste intensity ([3]; H-Gly-Leu-OH 60 mmol/L water, no Glypyridaine) was 3.5 and the Bitter taste intensity ([3]; H-Gly-Leu-OH 120 mmol/L water, no Glypyridaine) was 5.

Compound `N=C(N)NCCC[C@H](N)C(=O)O` [L-Arginine (L-Arg), L-Arginine] has a Salt-intensity (salty taste of NaCl [7]) of 0.0.

In the case of `O=C1C=C(c2ccco2)C(CO)[n+]2cc([O-])c(Cc3ccco3)cc21` (stereo not drawn) [3-(2-furyl)-8-[(2-furyl)methyl]-4-hydroxymethyl-1-oxo-1H,4H-quinolizinium-7-olate], the “bitter taste detection threshold” value (bitter taste) is given as 0.00025 mmol/kg water.

Compound `C[C@@H]1O[C@@H](O[C@H]2[C@H](Oc3cc(O)c4c(c3)O[C@H](c3ccc(O)cc3)CC4=O)O[C@H](CO)[C@@H](O)[C@@H]2O)[C@H](O)[C@H](O)[C@H]1O` [Naringine, reference compound] has a Bitter taste intensity ([4]; Naringine 0.06 mmol/L water, no Glypyridaine) of 2.5, a Bitter taste intensity ([4]; Naringine 0.13 mmol/L water, no Glypyridaine) of 4 and a Bitter taste intensity ([4]; Naringine 0.25 mmol/L water, no Glypyridaine) of 5.
